# From patent US20240002374A1, “5-MEMBERED HETEROARYLAMINOSULFONAMIDES FOR TREATING CONDITIONS MEDIATED BY DEFICIENT CFTR ACTIVITY” (Genzyme Corporation, priority 2019, published 2024)
# Molecular target: T1, CFTR (primary human bronchial epithelial cells from a ΔF508 homozygous CF donor, CF-HBE cells) (Homo sapiens, UniProt P13569, DEL508-508)
# T1 construct: Primary human bronchial epithelial cells from a ΔF508 homozygous CF donor; host or cells: primary human bronchial epithelial cells (CF-HBE) from a ΔF508 homozygous CF donor
# T1 sequence (P13569 with tags, fused parts or gaps DEL508-508): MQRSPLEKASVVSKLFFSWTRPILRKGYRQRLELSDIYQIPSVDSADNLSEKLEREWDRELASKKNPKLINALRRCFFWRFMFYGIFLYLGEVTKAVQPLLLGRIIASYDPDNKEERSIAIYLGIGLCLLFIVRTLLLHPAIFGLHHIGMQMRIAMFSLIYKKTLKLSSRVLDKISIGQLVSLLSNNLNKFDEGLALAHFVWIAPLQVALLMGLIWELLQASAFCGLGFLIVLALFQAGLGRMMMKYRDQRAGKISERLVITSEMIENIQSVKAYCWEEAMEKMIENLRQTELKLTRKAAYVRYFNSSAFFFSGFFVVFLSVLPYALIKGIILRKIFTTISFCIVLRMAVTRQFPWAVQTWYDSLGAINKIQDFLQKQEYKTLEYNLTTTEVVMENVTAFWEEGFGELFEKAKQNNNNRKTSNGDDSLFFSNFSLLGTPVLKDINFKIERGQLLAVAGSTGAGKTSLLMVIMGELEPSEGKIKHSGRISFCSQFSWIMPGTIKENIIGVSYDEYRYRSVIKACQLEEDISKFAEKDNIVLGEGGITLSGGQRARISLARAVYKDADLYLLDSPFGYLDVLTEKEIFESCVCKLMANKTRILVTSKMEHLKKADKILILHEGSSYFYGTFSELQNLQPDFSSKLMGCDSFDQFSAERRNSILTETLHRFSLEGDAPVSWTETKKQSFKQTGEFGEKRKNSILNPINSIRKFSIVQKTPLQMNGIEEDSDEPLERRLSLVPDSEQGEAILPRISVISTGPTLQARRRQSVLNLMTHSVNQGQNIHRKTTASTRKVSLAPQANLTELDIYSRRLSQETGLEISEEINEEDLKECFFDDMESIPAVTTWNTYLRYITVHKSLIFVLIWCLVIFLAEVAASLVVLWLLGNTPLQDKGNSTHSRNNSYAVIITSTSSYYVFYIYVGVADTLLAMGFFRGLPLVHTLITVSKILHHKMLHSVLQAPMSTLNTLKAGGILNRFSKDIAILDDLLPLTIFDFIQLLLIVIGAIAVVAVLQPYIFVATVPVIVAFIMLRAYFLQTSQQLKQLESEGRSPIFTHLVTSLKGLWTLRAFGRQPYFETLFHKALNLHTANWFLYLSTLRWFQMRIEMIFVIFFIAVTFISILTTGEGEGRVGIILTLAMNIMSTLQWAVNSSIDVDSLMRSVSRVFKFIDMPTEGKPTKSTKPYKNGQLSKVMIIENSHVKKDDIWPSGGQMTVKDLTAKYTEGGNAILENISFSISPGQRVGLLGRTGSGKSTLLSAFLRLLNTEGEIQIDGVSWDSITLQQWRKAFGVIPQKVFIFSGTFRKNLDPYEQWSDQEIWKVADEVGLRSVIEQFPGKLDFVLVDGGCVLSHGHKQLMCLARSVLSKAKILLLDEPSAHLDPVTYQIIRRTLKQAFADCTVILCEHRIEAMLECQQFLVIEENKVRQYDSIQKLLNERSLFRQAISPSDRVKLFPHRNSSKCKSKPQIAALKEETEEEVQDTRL
# Assay: TECC24 recording of CFTR-mediated transepithelial chloride transport (TECC24 AUC fold over DMSO @ 3 μM)
# Assay type: cell-based
# Settings: 3 uM test agent; CF-HBE cells (ΔF508 homozygous) incubated 48 h; ratio of test agent AUC of forskolin-stimulated IEQ to vehicle (DMSO) AUC
# Outline: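 ΔF508-homozygous CF-HBE cells incubated 48 h at 36.5° C with test agent (3 μM) in IL-13-containing medium, then recorded in current clamp with benzamil (10 μM), forskolin (10 μM) and bumetanide (20 μM). AUC of equivalent Cl− current between forskolin and bumetanide expressed as fold over DMSO vehicle.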
row,TECC AUC vs. DMSO @ 3 uM,Structure (SMILES)
1,A (“A” refers to AUC > 5),"Cc1cccc(C)c1-c1nc(NS(=O)(=O)c2cccc(N(C)C)n2)sc1-c1cccc(C2CCC(C)(C)C2)c1 (stereo not shown) [Example 342, 6-(dimethylamino)-N-[5-[3-(3,3-dimethylcyclopentyl)phenyl]-4-(2,6-dimethylphenyl)-1,3-thiazol-2-yl]pyridine-2-sulfonamide]"
2,A (“A” refers to AUC > 5),"CC(C)c1ccccc1-c1nc(NS(=O)(=O)c2cccc(N)n2)sc1N1CCOC2(CCC(C)(C)C2)C1 (stereo not shown) [Example 349, 6-amino-N-[5-(3,3-dimethyl-6-oxa-9-azaspiro[4.5]decan-9-yl)-4-(2-propan-2-ylphenyl)-1,3-thiazol-2-yl]pyridine-2-sulfonamide]"
3,A (“A” refers to AUC > 5),"Cc1cccc(C)c1-c1nc(NS(=O)(=O)c2cccc(N(C)C)n2)sc1-c1cccc(OC2CCC(C)(C)C2)c1 (stereo not shown) [Example 358, 6-(dimethylamino)-N-[5-[3-(3,3-dimethylcyclopentyl)oxyphenyl]-4-(2,6-dimethylphenyl)-1,3-thiazol-2-yl]pyridine-2-sulfonamide]"
4,A (“A” refers to AUC > 5),"Cc1cccc(C)c1-c1nc(NS(=O)(=O)c2ccccc2)sc1C1=CC(CC(C)(C)C)OCC1 (stereo not shown) [Example 370, N-[4-(2,6-dimethylphenyl)-5-[6-(2,2-dimethylpropyl)-3,6-dihydro-2H-pyran-4-yl]-1,3-thiazol-2-yl]benzenesulfonamide]"
5,A (“A” refers to AUC > 5),CC(C)Oc1cc(Cl)ccc1-c1nc(NS(=O)(=O)c2cccc(N)c2F)sc1-c1cccc(OCC(F)(F)C(C)(C)C)c1 [Example 382]
6,A (“A” refers to AUC > 5),"Cc1cccc(C)c1-c1nc(NS(=O)(=O)c2ccccc2)sc1N1C[C@H](OC(C)(C)C)C[C@H]1C [Example 402, N-[4-(2,6-dimethylphenyl)-5-[(2R,4R)-2-methyl-4-[(2-methylpropan-2-yl)oxy]pyrrolidin-1-yl]-1,3-thiazol-2-yl]benzenesulfonamide]"
7,A (“A” refers to AUC > 5),"CC(C)c1ccccc1-c1nc(NS(=O)(=O)c2cccc(N[C@H](C)C(F)(F)F)c2)sc1-c1cccc(OCC(C)(C)C)c1 [Example 429, N-[5-[3-(2,2-dimethylpropoxy)phenyl]-4-(2-propan-2-ylphenyl)-1,3-thiazol-2-yl]-3-[[(2R)-1,1,1-trifluoropropan-2-yl]amino]benzenesulfonamide]"
8,B (“B” refers to AUC 2-5),"CC(C)c1ccccc1-c1nc(NS(=O)(=O)c2cccc(NC(C)C(F)(F)F)c2)sc1-n1ccc(OCC(C)(C)C(F)(F)F)n1 (stereo not shown) [Example 471, N-[4-(2-propan-2-ylphenyl)-5-[3-(3,3,3-trifluoro-2,2-dimethylpropoxy)pyrazol-1-yl]-1,3-thiazol-2-yl]-3-(1,1,1-trifluoropropan-2-ylamino)benzenesulfonamide]"
9,B (“B” refers to AUC 2-5),"Cc1cccc(C)c1-c1nc(NS(=O)(=O)c2cn(C)nc2C)sc1N1CCOC2(CCC(OC(F)(F)F)C2)C1 (stereo not shown) [Example 491, N-[4-(2,6-dimethylphenyl)-5-[3-(trifluoromethoxy)-6-oxa-9-azaspiro[4.5]decan-9-yl]-1,3-thiazol-2-yl]-1,3-dimethylpyrazole-4-sulfonamide]"
10,B (“B” refers to AUC 2-5),"Cc1cccc(C)c1-c1nc(NS(=O)(=O)c2cn(C)nc2C)sc1N1C[C@H](OC(C)(C)C)C[C@H]1C [Example 495, N-[4-(2,6-dimethylphenyl)-5-[(2R,4R)-2-methyl-4-[(2-methylpropan-2-yl)oxy]pyrrolidin-1-yl]-1,3-thiazol-2-yl]-1,3-dimethylpyrazole-4-sulfonamide]"

row,Structure (SMILES),TECC AUC vs. DMSO @ 3 uM
1,"Cc1cccc(C)c1-c1nc(NS(=O)(=O)c2cccc(N(C)C)n2)sc1-c1cccc(OCCC(C)(C)C)c1 [Example 334, 6-(dimethylamino)-N-[5-[3-(3,3-dimethylbutoxy)phenyl]-4-(2,6-dimethylphenyl)-1,3-thiazol-2-yl]pyridine-2-sulfonamide]",A (“A” refers to AUC > 5)
2,"CC(C)c1ccccc1-c1nc(NS(=O)(=O)c2ccnc(N)c2)sc1-c1cccc(OCCC(C)(C)C)c1 [Example 362, 2-amino-N-[5-[3-(3,3-dimethylbutoxy)phenyl]-4-(2-propan-2-ylphenyl)-1,3-thiazol-2-yl]pyridine-4-sulfonamide]",A (“A” refers to AUC > 5)
3,"CC(C)Oc1cc(Cl)ccc1-c1nc(NS(=O)(=O)c2ccccc2)sc1-c1ccc(OC(F)F)c(OCCC(C)(C)C)c1 [Example 380, N-[4-(4-chloro-2-propan-2-yloxyphenyl)-5-[4-(difluoromethoxy)-3-(3,3-dimethylbutoxy)phenyl]-1,3-thiazol-2-yl]benzenesulfonamide]",A (“A” refers to AUC > 5)
4,"CNc1ccc(F)c(S(=O)(=O)Nc2nc(-c3c(C)cccc3C(F)(F)F)c(-c3cccc(OCCC(C)(C)C)c3)s2)c1 [Example 389, N-[5-[3-(3,3-dimethylbutoxy)phenyl]-4-[2-methyl-6-(trifluoromethyl)phenyl]-1,3-thiazol-2-yl]-2-fluoro-5-(methylamino)benzenesulfonamide]",A (“A” refers to AUC > 5)
5,"COC(=O)C1CCCC(Nc2cccc(S(=O)(=O)Nc3nc(-c4c(C)cccc4C)c(-c4cccc(OCCC(C)(C)C)c4)s3)n2)C1 (stereo not shown) [Example 435, methyl 3-[[6-[[5-[3-(3,3-dimethylbutoxy)phenyl]-4-(2,6-dimethylphenyl)-1,3-thiazol-2-yl]sulfamoyl]pyridin-2-yl]amino]cyclohexane-1-carboxylate]",A (“A” refers to AUC > 5)
6,"CC(C)c1ccccc1-c1nc(NS(=O)(=O)c2cccc(N)c2)sc1-c1cccc(OCC(F)(F)C(C)(C)C)c1 [Example 490, 3-amino-N-[5-[3-(2,2-difluoro-3,3-dimethylbutoxy)phenyl]-4-(2-propan-2-ylphenyl)-1,3-thiazol-2-yl]benzenesulfonamide]",B (“B” refers to AUC 2-5)
